Reference: article PMC5805707 (Scientific Reports, 2018)

Target: T1, cytochrome bd (Mycobacterium tuberculosis, UniProt L7N662)
T1 construct: gene cydA; native complex in inverted membrane vesicles of strain mc^2 6020
Experiment: NADH-driven oxygen consumption of inverted membrane vesicles (Clark electrode); maximal inhibition […]
Type: biochemical

T1 sequence (O06139 entry or part of it): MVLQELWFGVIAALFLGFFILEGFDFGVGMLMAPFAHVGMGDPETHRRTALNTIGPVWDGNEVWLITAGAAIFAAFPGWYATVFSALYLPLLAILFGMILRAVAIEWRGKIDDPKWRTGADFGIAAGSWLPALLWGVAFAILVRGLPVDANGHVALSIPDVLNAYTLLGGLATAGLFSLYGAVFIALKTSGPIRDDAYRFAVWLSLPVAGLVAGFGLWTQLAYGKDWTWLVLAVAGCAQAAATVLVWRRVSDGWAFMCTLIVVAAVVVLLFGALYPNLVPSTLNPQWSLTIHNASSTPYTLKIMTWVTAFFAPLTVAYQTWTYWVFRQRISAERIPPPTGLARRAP
T1 sequence (L7N662 entry or part of it): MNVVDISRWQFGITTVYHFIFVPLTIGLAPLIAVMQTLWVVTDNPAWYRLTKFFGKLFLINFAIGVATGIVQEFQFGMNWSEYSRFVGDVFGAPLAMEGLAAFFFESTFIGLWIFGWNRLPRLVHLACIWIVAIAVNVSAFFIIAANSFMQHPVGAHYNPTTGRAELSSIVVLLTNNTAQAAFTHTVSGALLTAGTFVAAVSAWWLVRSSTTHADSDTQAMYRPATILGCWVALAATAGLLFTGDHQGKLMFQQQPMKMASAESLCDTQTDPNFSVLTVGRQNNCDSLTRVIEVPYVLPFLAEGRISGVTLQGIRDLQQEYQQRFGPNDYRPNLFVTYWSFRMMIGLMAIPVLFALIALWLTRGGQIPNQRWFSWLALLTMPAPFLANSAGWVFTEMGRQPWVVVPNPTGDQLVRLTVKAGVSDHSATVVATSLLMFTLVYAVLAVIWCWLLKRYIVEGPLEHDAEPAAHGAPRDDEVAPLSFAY

CC(C)=CCC/C(C)=C/CC/C(C)=C/Cc1c(C)[nH]c2ccccc2c1=O [aurachin D]
IC50: ~400 nM
